The source of these data is ChEMBL document CHEMBL1268942, “Novel selective anti-androgens with a diphenylpentane skeleton” (Bioorg Med Chem Lett, 2010).

By Ki is commonly meant a measure of affinity in units of concentration, obtained from inhibition or displacement. A low value points to higher affinity.

Bounds are passed on as bounds.

In one data set the target is T1, Androgen receptor (Homo sapiens, UniProt P10275).
T1 sequence (P10275 whole entry): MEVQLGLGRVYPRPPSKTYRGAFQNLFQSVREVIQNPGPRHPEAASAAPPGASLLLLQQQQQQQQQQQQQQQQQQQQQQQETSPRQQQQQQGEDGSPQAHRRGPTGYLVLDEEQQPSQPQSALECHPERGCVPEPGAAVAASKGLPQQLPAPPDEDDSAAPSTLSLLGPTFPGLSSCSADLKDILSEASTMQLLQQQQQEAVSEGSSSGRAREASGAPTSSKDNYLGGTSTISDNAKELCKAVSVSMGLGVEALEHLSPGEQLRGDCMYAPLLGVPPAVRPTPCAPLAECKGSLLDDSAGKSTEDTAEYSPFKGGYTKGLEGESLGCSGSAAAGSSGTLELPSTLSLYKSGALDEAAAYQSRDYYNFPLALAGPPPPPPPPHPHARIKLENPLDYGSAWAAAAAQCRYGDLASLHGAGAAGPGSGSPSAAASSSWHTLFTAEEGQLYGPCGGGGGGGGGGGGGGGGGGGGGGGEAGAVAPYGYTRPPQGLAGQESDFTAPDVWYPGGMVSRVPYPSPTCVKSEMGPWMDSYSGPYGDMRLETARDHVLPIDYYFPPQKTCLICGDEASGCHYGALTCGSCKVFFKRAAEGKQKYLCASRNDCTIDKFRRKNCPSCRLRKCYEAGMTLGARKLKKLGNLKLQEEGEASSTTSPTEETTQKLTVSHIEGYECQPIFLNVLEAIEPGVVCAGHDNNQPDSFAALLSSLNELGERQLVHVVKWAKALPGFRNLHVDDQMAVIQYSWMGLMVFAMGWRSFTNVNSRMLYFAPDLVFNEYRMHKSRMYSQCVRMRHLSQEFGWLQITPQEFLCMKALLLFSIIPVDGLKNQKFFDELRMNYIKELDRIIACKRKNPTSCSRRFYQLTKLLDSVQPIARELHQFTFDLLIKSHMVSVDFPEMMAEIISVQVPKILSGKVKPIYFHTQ
As to the kind of experiment: Binding affinity to androgen receptor.
Settings: not given
`CCC(CC)(c1ccc(OC[C@@H](O)CO)c(C)c1)c1ccc(OC[C@H](O)C(C)(C)C)c(C)c1` showed a Ki of 1000 nM.

In the case of `CCC(CC)(c1ccc(OC[C@@H](O)CO)c(C)c1)c1ccc(OC[C@@H](O)C(C)(C)C)c(C)c1`, affinity was put at a Ki of 1100 nM.

Consider `CCC(CC)(c1ccc(OC[C@H](O)CO)c(C)c1)c1ccc(OC[C@@H](O)C(C)(C)C)c(C)c1`, for which the Ki came out at 1100 nM.

Consider `CCC(CC)(c1ccc(OCC(=O)C(C)(C)C)c(C)c1)c1ccc(OC[C@H](O)CO)c(C)c1`, for which the affinity, expressed as Ki, was 1100 nM.

The compound `CCC(CC)(c1ccc(OC[C@H](O)CO)c(C)c1)c1ccc(OC[C@H](O)C(C)(C)C)c(C)c1` returned a Ki of 1000 nM.

In turn, `CCC(CC)(c1ccc(OCC(=O)C(C)(C)C)c(C)c1)c1ccc(OC[C@@H](O)CO)c(C)c1` returned a Ki of 1800 nM.

Tested on in another data set: not listed separately
As to the kind of experiment: Toxicity in androgen-dependent mouse SC3 cells at 30 uM. It counts as cell-based. The note with it: sc-3, 30 µM.
Turning to `CCC(CC)(c1ccc(OCC(=O)C(C)(C)Cc2ccccc2)c(C)c1)c1ccc(OC[C@@H](O)CO)c(C)c1`, the Activity result is given as “Toxic”.

`CCC(CC)(c1ccc(OCC(O)C(C)(C)CCCCc2ccccc2)c(C)c1)c1ccc(OC[C@@H](O)CO)c(C)c1` (stereo partly drawn): the Activity entry is on record as “Toxic”.

On to `CCC(CC)(c1ccc(OCC(O)C23CC4CC(CC(C4)C2)C3)c(C)c1)c1ccc(OC[C@@H](O)CO)c(C)c1` (stereo partly drawn), for which the Activity entry was “Toxic”.

`CCC(CC)(c1ccc(OCC(O)C(C)(C)Cc2ccc3ccccc3c2)c(C)c1)c1ccc(OC[C@@H](O)CO)c(C)c1` (stereo partly drawn): the Activity result is on record as “Toxic”.

For `CCC(CC)(c1ccc(OC[C@@H](O)CO)c(C)c1)c1ccc(O[C@@H]2CN(Cc3ccccc3)C[C@@H]2O)c(C)c1`, the Activity result is on record as “Toxic”.

For another data set, the system named is HL-60. As to the kind of experiment: Selectivity index, ratio of EC50 for Vitamin-D activity at VDR receptor in human HL60 cells to EC50 for antiandrogen activity against androgen receptor in androgen-dependent mouse SC3 cells. Type of data set: cell-based.
Settings: not given
Take `CCC(CC)(c1ccc(OCC(=O)C(C)(C)CCc2ccccc2)c(C)c1)c1ccc(OC[C@@H](O)CO)c(C)c1`: the Ratio EC50 was found to be 21.

As to `CCC(CC)(c1ccc(OCC(=O)C(C)(C)Cc2ccccc2)c(C)c1)c1ccc(OC[C@@H](O)CO)c(C)c1`, the Ratio EC50 was less than 2.1.

Regarding `CCC(CC)(c1ccc(OCC(O)C(C)(C)CCCc2ccccc2)c(C)c1)c1ccc(OC[C@@H](O)CO)c(C)c1` (stereo partly drawn), the Ratio EC50 is 28.

As to `CCC(CC)(c1ccc(OCC(O)C(C)(C)CCc2ccccc2)c(C)c1)c1ccc(OC[C@@H](O)CO)c(C)c1` (stereo partly drawn), the Ratio EC50 amounted to 8.1.

As for `CCC(CC)(c1ccc(OCC(O)C23CC4CC(CC(C4)C2)C3)c(C)c1)c1ccc(OC[C@@H](O)CO)c(C)c1` (stereo partly drawn), the Ratio EC50 is less than 2.2.

Turning to `CCC(CC)(c1ccc(OCC(=O)C(C)(C)CCCc2ccccc2)c(C)c1)c1ccc(OC[C@@H](O)CO)c(C)c1`, the Ratio EC50 was greater than 3.1.

Take `CCC(CC)(c1ccc(OCC(O)C(C)(C)Cc2ccccc2)c(C)c1)c1ccc(OC[C@@H](O)CO)c(C)c1` (stereo partly drawn): the Ratio EC50 was 6.5.
